Some test systems named below: COLO 205 colon; EKVX NSCLC; SF-539 CNS; HCT-116 colon; KM12 colon; HCT-15 colon; LOX IMVI melanoma; UO-31 renal; OVCAR-3 ovarian; SF-268 CNS; HL-60(TB) leukemia; RXF 393 renal; SN12C renal; K-562 leukemia; SK-MEL-5 melanoma; ACHN renal; CAKI-1 renal.
Holding throughout (experiment): growth of human tumour cells (NCI), 48 h

Values joined by “and” are separate entries in the source; they are usually repeats but may differ in a detail not shown here. Identical values can stand only once.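 Compound exposure: 48 hours, 5 concentrations, 96-well plates. At the GI50, growth is halved. TGI denotes the concentration required for complete inhibition of growth.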

In the case of `COc1cc(C2c3cc4c(cc3[C@@H](NCCN3CCCCC3)C3COC(=O)[C@H]23)OCO4)cc(OC)c1O` (stereo not given in full), the TGI in the test on COLO 205 colon was above 100 µM; in the test with EKVX NSCLC it was 5.28 µM and 5.71 µM; in the test with SF-539 CNS, 0.842 µM and 0.896 µM; in the test on HCT-116 colon, 10.6 µM and 14.6 µM; with KM12 colon, 3.8 µM and 3.88 µM; in the test with HCT-15 colon, 2.26 µM and 2.15 µM. Moreover, the TGI with LOX IMVI melanoma is 1.72 µM and 1.61 µM; in the test on UO-31 renal, 1.8 µM and 1.99 µM; with OVCAR-3 ovarian it was 3.52 µM and 3.72 µM; in the test on SF-268 CNS it was 6 µM and 15.8 µM; in the test on HL-60(TB) leukemia, 0.402 µM and 0.36 µM; with RXF 393 renal, 1.98 µM and 4.14 µM. The TGI in the test with SN12C renal is 5.81 µM and 5.85 µM; in the test with K-562 leukemia, 20.8 µM and 18 µM; in the test on SK-MEL-5 melanoma it was 1.93 µM and 2.19 µM. Moreover, in the test on RXF 393 renal, the GI50 is 0.243 µM and 1.27 µM.
For the molecule `O=C(O)C12C3C4C1C1C2C3C1(Br)C41OCCO1` (stereo not given), the TGI in the test with COLO 205 colon, in the test on EKVX NSCLC, in the test with SF-539 CNS, in the test with HCT-116 colon, in the test on KM12 colon and with LOX IMVI melanoma was above 100 µM throughout. In addition, the TGI in the test on UO-31 renal, in the test with OVCAR-3 ovarian, in the test with ACHN renal, in the test with SF-268 CNS, in the test on HL-60(TB) leukemia and in the test with RXF 393 renal was above 100 µM in each case. In addition, the TGI in the test with K-562 leukemia and in the test with SK-MEL-5 melanoma was above 100 µM throughout.
With `CC1(C)C2CCC(N)(C2)C1N` (stereo not given), the TGI with COLO 205 colon, with EKVX NSCLC, with HCT-116 colon, with CAKI-1 renal, in the test with KM12 colon and in the test on HCT-15 colon was above 100 µM in each case. The TGI in the test on LOX IMVI melanoma, in the test with UO-31 renal, in the test with OVCAR-3 ovarian, in the test on ACHN renal, with HL-60(TB) leukemia and with RXF 393 renal was above 100 µM in each case. Moreover, the TGI with SN12C renal, in the test with K-562 leukemia and in the test on SK-MEL-5 melanoma was above 100 µM throughout.
Take `O/N=C/c1cc2c(cc1Br)OCO2`: the TGI with COLO 205 colon, with EKVX NSCLC, in the test on SF-539 CNS, in the test on HCT-116 colon, in the test with CAKI-1 renal and in the test with KM12 colon was above 100 µM each time. Besides, the TGI in the test with HCT-15 colon, in the test with LOX IMVI melanoma, in the test with UO-31 renal, in the test on OVCAR-3 ovarian, in the test with ACHN renal and in the test with HL-60(TB) leukemia was above 100 µM each time. The TGI in the test on SN12C renal, with K-562 leukemia and in the test with SK-MEL-5 melanoma was above 100 µM in each case.
As for `COc1ccc(N(C)Sc2ccccc2)cc1`, the TGI is above 100 µM in the test with COLO 205 colon; 56 µM in the test with SF-539 CNS; above 100 µM with HCT-116 colon; above 100 µM in the test with KM12 colon; above 100 µM in the test on HCT-15 colon; above 100 µM in the test with LOX IMVI melanoma. For the same molecule, the TGI in the test on UO-31 renal was above 100 µM; in the test on OVCAR-3 ovarian it was above 100 µM; in the test on SF-268 CNS, above 100 µM; in the test with HL-60(TB) leukemia, 52.3 µM; with RXF 393 renal, 53.4 µM; with SN12C renal it was 75.3 µM. The TGI in the test with K-562 leukemia and with SK-MEL-5 melanoma was above 100 µM throughout.
Turning to `O=C(Cc1ccccc1)NN1C(=O)C(Cl)C1c1ccc([N+](=O)[O-])cc1` (stereo not given), the TGI in the test on COLO 205 colon, in the test with EKVX NSCLC, in the test on HCT-116 colon, with CAKI-1 renal, in the test with KM12 colon and in the test with HCT-15 colon was above 100 µM each time. Further, the TGI in the test on LOX IMVI melanoma, in the test with UO-31 renal, in the test with OVCAR-3 ovarian, in the test on ACHN renal, in the test with SF-268 CNS and with HL-60(TB) leukemia was above 100 µM throughout. The TGI in the test with RXF 393 renal, with SN12C renal, in the test with K-562 leukemia and in the test with SK-MEL-5 melanoma was above 100 µM throughout.
In the case of `C=CCN(N=O)C(=O)N(CCCC(NC(C)=O)C(=O)NCc1ccccc1)Cc1ccccc1` (stereo not given), the TGI was above 100 µM in the test on COLO 205 colon; above 100 µM with EKVX NSCLC; above 100 µM with SF-539 CNS; 83.9 µM with CAKI-1 renal; above 100 µM in the test on KM12 colon; above 100 µM in the test on HCT-15 colon. For the same molecule, the TGI with LOX IMVI melanoma is above 100 µM; in the test on UO-31 renal, above 100 µM; in the test on OVCAR-3 ovarian, above 100 µM; with ACHN renal, above 100 µM; in the test on SF-268 CNS it was above 100 µM; in the test on HL-60(TB) leukemia it was 52.9 µM. Besides, the TGI is above 100 µM in the test on RXF 393 renal, above 100 µM with SN12C renal, above 100 µM with K-562 leukemia and 93.8 µM in the test with SK-MEL-5 melanoma.
In the case of `NC1=NNC2(C(=O)N1)c1ccccc1-c1ccccc12`, the TGI in the test with COLO 205 colon, with SF-539 CNS, in the test on HCT-116 colon, in the test with CAKI-1 renal, in the test with KM12 colon and in the test on HCT-15 colon was above 10 µM throughout. The TGI in the test with LOX IMVI melanoma, with UO-31 renal, with OVCAR-3 ovarian, in the test on ACHN renal, with SF-268 CNS and in the test with HL-60(TB) leukemia was above 10 µM each time. Besides, the TGI in the test with RXF 393 renal, with SN12C renal, in the test with K-562 leukemia and in the test with SK-MEL-5 melanoma was above 10 µM each time.
Consider `CCn1c2ccccc2c2ccc3c(c21)C(=O)c1ccccc1C3=O`, for which the TGI with COLO 205 colon, in the test on EKVX NSCLC, with SF-539 CNS, in the test on HCT-116 colon, in the test with HCT-15 colon and in the test with UO-31 renal was above 100 µM each time. For the same molecule, the TGI with ACHN renal, in the test on SF-268 CNS, with HL-60(TB) leukemia, in the test on RXF 393 renal, in the test on SN12C renal and with K-562 leukemia was above 100 µM each time. Further, the TGI in the test on SK-MEL-5 melanoma is above 100 µM.

The values above are taken from PubChem BioAssay (NCI).
